Experimental data taken from patent publication US20120232062A1, “AZAINDAZOLES TO TREAT FLAVIVIRIDAE VIRUS INFECTION” (EIGER BIOPHARMACEUTICALS, INC., priority 2009, published 2012).
Where two headings read alike, the source gives them in different places.

What was measured:
[1] = In vivo rat pharmacokinetic studies; conditions: for concentration in liver, fold above the EC50: rat liver after PO 20 or 40 mpk, for qd dosing
From the text: In vivo rat pharmacokinetic studies are designed to measure bioavailability, tissue distribution and metabolite identification in rats after intravenous (IV) and oral (PO) dosing. A full PK study typically includes two study arms (IV and PO) and takes serial blood samples from multiple animals per compound. The assay as described in this example was developed by BioDuro, a corporation of China with its principal office located at Building E, No. 29 Life Science Park Road, Changping District, Beijing, 102206, P.R. China.
Each compound was singly dosed both IV (1 mpk (mg/kg) to rats 1-3) and PO (20 or 40 mpk to rats 4-18), followed by blood draws and liver concentration studies (for PO dosed rats) from each animal at each time point.

[2] = target: T1, CYP 2C9 (Homo sapiens, UniProt P11712); assay: CYP inhibition testing, CYP 2C9; format: in vitro ADME; conditions: human liver microsomes; >75 = low level of inhibition
T1 construct: For human liver microsome solution, a stock solution (20 mg/mL (4×final)) is used; from tissue; host or cells: human liver microsomes
T1 sequence (P11712 whole entry): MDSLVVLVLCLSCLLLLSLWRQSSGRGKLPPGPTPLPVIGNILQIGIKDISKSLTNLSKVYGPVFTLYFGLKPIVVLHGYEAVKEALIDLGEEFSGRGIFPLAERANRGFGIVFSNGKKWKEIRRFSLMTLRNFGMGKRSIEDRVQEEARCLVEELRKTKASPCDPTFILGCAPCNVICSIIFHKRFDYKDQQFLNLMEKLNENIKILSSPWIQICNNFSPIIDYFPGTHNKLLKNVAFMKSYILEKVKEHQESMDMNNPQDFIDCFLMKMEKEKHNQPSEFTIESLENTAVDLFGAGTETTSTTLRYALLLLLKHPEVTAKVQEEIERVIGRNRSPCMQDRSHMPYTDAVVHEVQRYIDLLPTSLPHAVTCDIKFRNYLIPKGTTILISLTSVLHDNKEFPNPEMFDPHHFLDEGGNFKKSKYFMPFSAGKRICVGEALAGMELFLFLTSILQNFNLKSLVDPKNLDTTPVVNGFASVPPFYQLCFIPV
Experimental: (§1) Select compounds are tested for CYP inhibition against five different CYP enzymes: CYP 1A2, CYP 2C9, CYP 2C19, CYP 2D6, CYP 3A4. Individual CYP enzymes are incubated with corresponding substrates with no inhibitor (negative control). Individual CYP enzymes are then incubated with corresponding substrates in the presence of test compound. […] Values of 70>v, w, x, y, z>30 indicate moderate level of inhibition of the corresponding enzyme.
(§2) The following reagents are used: Sodium Phosphate, monobasic; Sodium Phosphate, dibasic; β-Nicotinamide Adenine Dinucleotide Phosphate-Reduced (NADPH), Roche; Milli-Q Water; 0.1 M Potassium phosphate buffer (K-buffer), pH 7.4. The following stock solutions are used. Stock A (136.5 g of monobasic potassium phosphate in 1 L of Milli-Q water (1.0 M)). Stock B (174.2 g of dibasic potassium phosphate in 1 L of Milli-Q water (1.0 M)). 40.5 mL of Stock B is mixed with 9.5 mL of Stock A, and the total volume brought near 500 mL with Milli-Q water to give 0.1 M potassium phosphate buffer. The buffer is titrated with KOH or H3PO4 to pH 7.4. To prepare a cofactor buffer (4×, 8 mM NADPH), 66.7 mg of NADPH tetrasodium salt is dissolved in 10 mL of K-buffer. For human liver microsome solution, a stock solution (20 mg/mL (4×final)) is used.
(§3) The following Positive control stock solutions are prepared: 0.3 mM α-Naphthoflavone (MW: 272.3, 0.0817 mg of α-Naphthoflavone in 1 mL DMSO), 10 mM Sulfaphenazole (MW: 314.4, 3.14 mg of sulfaphenazole in 1 mL DMSO) 100 mM Omeprazole (MW: 345.4, 34.54 mg of omeprazole in 1 mL DMSO), 2.5 mM Quinidine (MW: 324, 0.81 mg of quinidine in 1 mL DMSO), and 2.5 mM Ketoconazole (MW: 531.4, 1.33 mg of ketoconazole in 1 mL DMSO).
(§4) The following substrate stock solutions are prepared: 6 mM Phenacetin (MW: 179.22, 1.075 mg of phenacetin in 1 mL can), 10 mM Diclofenac (MW: 318.83, 3.18 mg of Diclofenac in 1 ml H2O), 35 mM S-Mephenyloin (MW: 218.25, 7.64 mg of s-mephenyloin in 1 mL ACN 10 mM Bufuralol (MW: 297.82, 2.98 mg of Bufuralol in 1 ml H2O), 1 mM Midazolam (MW: 325.77, 0.326 mg of midazolam in 1 mL can), and 10 mM Testosterone (MW: 288.42, 2.88 mg of Testosterone in 1 ml ACN.
(§5) Test compounds and reference compounds (positive control) are prepared in 0.2 mg/ml liver microsome solution. A 0.2 mg/ml liver microsome solution (2×final) is prepared from stock solution by adding 10 μL microsome stock solutions (20 mg/ml) in 990 μL K-buffer. 8 μL of 10 mM test compound stock solution (in DMSO or other solvent at various concentrations) is diluted with 12 μL ACN to make 4 mM solutions. 1:3 serial dilutions are performed using DMSO/ACN (40:60) from 4 mM solution further down seven concentration points (400×final): 4 mM, 1.33 mM, 0.44 mM, 0.148 mM, […], 0.0165 mM, 0.00549 mM, 0 mM. […]

[3] = target: T2, CYP 3A4 (Homo sapiens, UniProt P08684); assay: CYP inhibition testing, CYP 3A4; format: in vitro ADME; conditions: human liver microsomes; >75 = low level of inhibition
T2 construct: For human liver microsome solution, a stock solution (20 mg/mL (4×final)) is used; from tissue; host or cells: human liver microsomes
T2 sequence (P08684 whole entry): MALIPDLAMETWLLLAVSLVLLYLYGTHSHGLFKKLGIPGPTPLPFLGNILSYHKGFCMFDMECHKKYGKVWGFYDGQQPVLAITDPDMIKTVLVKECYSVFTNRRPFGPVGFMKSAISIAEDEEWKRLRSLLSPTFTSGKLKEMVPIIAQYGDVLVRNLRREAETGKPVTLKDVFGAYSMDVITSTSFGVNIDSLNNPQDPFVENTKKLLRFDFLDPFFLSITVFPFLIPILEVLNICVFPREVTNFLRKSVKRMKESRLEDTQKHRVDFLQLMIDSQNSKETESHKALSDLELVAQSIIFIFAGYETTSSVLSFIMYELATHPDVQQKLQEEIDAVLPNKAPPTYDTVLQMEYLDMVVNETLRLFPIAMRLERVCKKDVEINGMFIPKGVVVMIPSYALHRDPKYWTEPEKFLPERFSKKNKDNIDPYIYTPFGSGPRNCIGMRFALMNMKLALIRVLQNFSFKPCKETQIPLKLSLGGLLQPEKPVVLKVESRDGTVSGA
Experimental: as §1, §2, §3, §4, §5

[4] = target: T3, CYP 2C19 (Homo sapiens, UniProt P33261); assay: CYP inhibition testing, CYP 2C19; format: in vitro ADME; conditions: human liver microsomes; >75 = low level of inhibition
T3 construct: For human liver microsome solution, a stock solution (20 mg/mL (4×final)) is used; from tissue; host or cells: human liver microsomes
T3 sequence (P33261 whole entry): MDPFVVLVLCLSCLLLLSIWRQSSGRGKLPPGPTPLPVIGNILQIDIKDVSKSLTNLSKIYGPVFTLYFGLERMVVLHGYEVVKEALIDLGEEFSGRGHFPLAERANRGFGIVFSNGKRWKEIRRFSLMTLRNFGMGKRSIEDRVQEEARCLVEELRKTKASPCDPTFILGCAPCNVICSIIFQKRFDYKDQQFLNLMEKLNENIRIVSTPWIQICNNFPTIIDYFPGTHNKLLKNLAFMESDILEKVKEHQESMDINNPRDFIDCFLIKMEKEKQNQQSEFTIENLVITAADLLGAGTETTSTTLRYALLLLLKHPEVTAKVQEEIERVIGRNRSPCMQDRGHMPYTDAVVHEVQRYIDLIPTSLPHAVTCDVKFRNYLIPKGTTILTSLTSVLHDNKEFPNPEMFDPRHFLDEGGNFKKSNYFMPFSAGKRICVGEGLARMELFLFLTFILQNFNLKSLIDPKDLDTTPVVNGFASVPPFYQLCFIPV
Experimental: as §1, §2, §3, §4, §5

[5] = target: T4, CYP 2D6 (Homo sapiens, UniProt P10635); assay: CYP inhibition testing, CYP 2D6; format: in vitro ADME; conditions: human liver microsomes; >75 = low level of inhibition
T4 construct: For human liver microsome solution, a stock solution (20 mg/mL (4×final)) is used; from tissue; host or cells: human liver microsomes
T4 sequence (P10635 whole entry): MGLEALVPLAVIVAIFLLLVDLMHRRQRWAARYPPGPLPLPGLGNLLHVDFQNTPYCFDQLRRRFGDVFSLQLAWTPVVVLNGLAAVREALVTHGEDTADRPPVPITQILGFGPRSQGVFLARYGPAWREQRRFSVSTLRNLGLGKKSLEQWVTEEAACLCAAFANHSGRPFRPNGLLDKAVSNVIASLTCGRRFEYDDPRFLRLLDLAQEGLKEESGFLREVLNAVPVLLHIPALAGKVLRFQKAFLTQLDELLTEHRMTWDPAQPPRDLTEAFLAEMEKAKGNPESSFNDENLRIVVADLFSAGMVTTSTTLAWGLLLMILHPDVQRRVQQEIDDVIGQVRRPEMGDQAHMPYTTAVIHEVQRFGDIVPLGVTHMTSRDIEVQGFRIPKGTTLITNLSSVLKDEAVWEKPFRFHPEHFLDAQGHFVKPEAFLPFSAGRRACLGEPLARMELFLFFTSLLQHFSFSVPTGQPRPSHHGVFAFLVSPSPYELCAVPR
Experimental: as §1, §2, §3, §4, §5

[6] = 20 mg/kg, rat, PO 20 mpk, liver/plasma, read-out: L/P Ratio
[7] = liver, 20 mg/kg, rat, PO 20 mpk, read-out: Liver
[8] = plasma, 20 mg/kg, rat, PO 20 mpk vs IV 1 mpk
[9] = plasma, 20 mg/kg, rat, PO 20 mpk, read-out: Plasma
[10] = 40 mg/kg, rat, PO 40 mpk, liver/plasma, read-out: L/P Ratio
[11] = liver, 40 mg/kg, rat, PO 40 mpk, read-out: Liver
[12] = plasma, 40 mg/kg, rat, PO 40 mpk, read-out: Plasma

What does the source list for `Cn1nc(C(=O)NC2CCN(CCN3CCCCC3)CC2)c2ccc(N3CCCCCC3)nc21` [EBP1047]?
Kp at 0.25 h [1, 6]: 78.3; Kp at 1 h [1, 6]: 558; Kp at 4 h [1, 6]: 261; Kp at 8 h [1, 6]: 182; concentration at 0.25 h [1, 7]: 382 ng/g; concentration at 1 h [1, 7]: 14000 ng/g; concentration at 4 h [1, 7]: 2670 ng/g; concentration at 8 h [1, 7]: 563 ng/g; concentration at 24 h [1, 7]: 5.35 ng/g; bioavailability [1, 8]: 9%; concentration at 0.25 h [1, 9]: 5.1 ng/mL; concentration at 1 h [1, 9]: 24.1 ng/mL; concentration at 4 h [1, 9]: 10.4 ng/mL; concentration at 8 h [1, 9]: 2.9 ng/mL; concentration at 24 h [1, 9]: 0 ng/mL; concentration in liver, fold above the EC50 [1]: 2-60 fold; Liver Conc (range) ([1]; rat, PO 20 mpk, over the period given): 1 to 30 µM

Which results are given for `CCN1CCC(NC(=O)c2nn(C)c3nc(N4CCCCCC4)ccc23)CC1` [EBP1595]?
Kp at 0.25 h [1, 6]: 652; Kp at 1 h [1, 6]: 172; Kp at 4 h [1, 6]: 67; concentration at 0.25 h [1, 7]: 1900 ng/g; concentration at 1 h [1, 7]: 12400 ng/g; concentration at 4 h [1, 7]: 1400 ng/g; concentration at 8 h [1, 7]: 132 ng/g; concentration at 24 h [1, 7]: 0 ng/g; bioavailability [1, 8]: 9%; concentration at 0.25 h [1, 9]: 1.6 ng/mL; concentration at 1 h [1, 9]: 96.4 ng/mL; concentration at 4 h [1, 9]: 14 ng/mL; concentration at 8 h [1, 9]: 0 ng/mL; concentration at 24 h [1, 9]: 0 ng/mL; concentration in liver, fold above the EC50 [1]: 2-32 fold

What does the source list for `Cn1nc(C(=O)NC2CCN(CCN3CCCC3)CC2)c2ccc(N3CCCCCC3)nc21` [EBP1597]?
Kp at 0.25 h [1, 10]: 1670; Kp at 4 h [1, 10]: 717; Kp at 8 h [1, 10]: 582; Kp at 12 h ([1]; 40 mg/kg, rat, PO 40 mpk, 12 h, liver/plasma, read-out: L/P Ratio): 527; concentration at 0.25 h [1, 11]: 2620 ng/g; concentration at 4 h [1, 11]: 8120 ng/g; concentration at 8 h [1, 11]: 1500 ng/g; concentration at 12 h ([1]; liver, 40 mg/kg, rat, PO 40 mpk, 12 h, read-out: Liver): 1030 ng/g; liver concentration range at 12 h ([1]; liver, 40 mg/kg, rat, PO 40 mpk, over the period given, read-out: Liver Conc (range)): 2 to 18 µM; bioavailability ([1]; plasma, 40 mg/kg, rat, PO 40 mpk vs IV 1 mpk): 9%; concentration at 0.25 h [1, 12]: 1.6 ng/mL; concentration at 4 h [1, 12]: 10.3 ng/mL; concentration at 8 h [1, 12]: 2.6 ng/mL; concentration at 12 h ([1]; plasma, 40 mg/kg, rat, PO 40 mpk, 12 h, read-out: Plasma): 2.5 ng/mL; concentration in liver, fold above the EC50 [1]: 2-18 fold; Liver Conc (range) ([1]; rat, PO 40 mpk, over the period given): 2 to 18 µM

With `CC(C)N1CCC(NC(=O)c2nn(C)c3nc(N4CCCCCC4)ccc23)CC1` [EBP1604] as the compound, how does the Kp at 0.25 h [1, 6] read?
Its Kp at 0.25 h is 618.

And the Kp at 1 h [1, 6]?
Its Kp at 1 h is 275.

And the concentration at 0.25 h [1, 7]?
Its concentration at 0.25 h is 915 ng/g.

What about the concentration at 1 h [1, 7] of the same compound?
The concentration at 1 h was 4870 ng/g.

What about the concentration at 4 h [1, 7] of the same compound?
The concentration at 4 h was 203 ng/g.

And the concentration at 8 h [1, 7]?
Its concentration at 8 h is 43 ng/g.

And the concentration at 24 h [1, 7]?
Its concentration at 24 h is 0 ng/g.

What about the bioavailability [1, 8] of the same compound?
The bioavailability was 2%.

What about the concentration at 0.25 h [1, 9] of the same compound?
Its concentration at 0.25 h is 0.8 ng/mL.

And the concentration at 1 h [1, 9]?
Its concentration at 1 h is 17.9 ng/mL.

What about the concentration at 4 h [1, 9] of the same compound?
The concentration at 4 h was 0 ng/mL.

What about the concentration at 8 h [1, 9] of the same compound?
The concentration at 8 h was 0 ng/mL.

And the concentration at 24 h [1, 9]?
Its concentration at 24 h is 0 ng/mL.

What about the “concentration in liver, fold above the EC50” value [1] of the same compound?
The value was “up to 6 fold”.

What about the “Liver Conc (range)” value ([1]; rat, PO 20 mpk, over the period given, 20 mg/kg) of the same compound?
The value was 2 to 12 µM.

Which results are given for `Cn1nc(C(=O)NC2CCNCC2)c2ccc(N3CCCCCC3)nc21.O=C(O)C(F)(F)F.O=C(O)C(F)(F)F` [compound 697]?
CYP (% negative controls) 2C9 [2]: 92 % negative controls; CYP (% negative controls) 3A4 [3]: 110 % negative controls; CYP (% negative controls) 2C19 [4]: 78 % negative controls; CYP (% negative controls) 2D6 [5]: 80 % negative controls

With `CCC(CC)Oc1ccc2c(C(=O)NC3CCNCC3)n[nH]c2n1` [compound 726] as the compound, how does the “CYP (% negative controls) 2C9” value [2] read?
Its value is 84 % negative controls.

And the “CYP (% negative controls) 3A4” value [3]?
Its value is 60 % negative controls.

And the “CYP (% negative controls) 2C19” value [4]?
The value was 74 % negative controls.

And the “CYP (% negative controls) 2D6” value [5]?
Its value is 72 % negative controls.

Which results are given for `Cn1nc(C(=O)NC2CCN(CCN3CCCCC3)CC2)c2ccc(N3CCCCCC3)nc21` [compound 1047]?
CYP (% negative controls) 2C9 [2]: 91 % negative controls; CYP (% negative controls) 3A4 [3]: 113 % negative controls; CYP (% negative controls) 2C19 [4]: 92 % negative controls; CYP (% negative controls) 2D6 [5]: 72 % negative controls

Which results are given for `Cn1nc(CCCN2CCCC2)c2ccc(N3CCCCCCC3)nc21` [compound 1171]?
CYP (% negative controls) 2C9 [2]: 141 % negative controls; CYP (% negative controls) 3A4 [3]: 67 % negative controls; CYP (% negative controls) 2C19 [4]: 72 % negative controls; CYP (% negative controls) 2D6 [5]: 62 % negative controls
